According to patent publication US20250197799A1, “CELLS DERIVED FROM POLYPEDILUM VANDERPLANKI AND ODOR SENSOR EQUIPPED THEREWITH” (University of Maryland, College Park, priority 2022, published 2025):

Molecular target: T1, Orco (Drosophila melanogaster, UniProt Q9VNB5)
T1 construct: remnant residues; expressed in transfected cells; host or cells: Pv11 cells (Polypedilum vanderplanki), knock-in at the Pv.00443 locus downstream of the 121 promoter, single-cell sorting
T1 sequence (Q9VNB5 1-486): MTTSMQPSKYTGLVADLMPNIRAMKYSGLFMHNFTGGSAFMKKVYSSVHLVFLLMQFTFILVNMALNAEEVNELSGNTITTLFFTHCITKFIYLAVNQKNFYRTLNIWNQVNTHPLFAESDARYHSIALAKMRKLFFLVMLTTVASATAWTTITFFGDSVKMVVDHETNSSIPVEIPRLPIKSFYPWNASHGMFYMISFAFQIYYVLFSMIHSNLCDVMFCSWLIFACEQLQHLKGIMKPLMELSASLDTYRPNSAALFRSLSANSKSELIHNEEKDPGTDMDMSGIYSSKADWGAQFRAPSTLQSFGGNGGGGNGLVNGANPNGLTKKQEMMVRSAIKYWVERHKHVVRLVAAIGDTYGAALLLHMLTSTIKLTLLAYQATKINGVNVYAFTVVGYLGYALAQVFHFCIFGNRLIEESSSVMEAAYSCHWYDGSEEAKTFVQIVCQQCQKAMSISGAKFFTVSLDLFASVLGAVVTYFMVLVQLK
Test: Exogenous membrane protein function after drying-rehydration, Orco stable expression cell line
Format: cell-based
Settings: 1 hour after drying and rehydration
Experimental: To assess the drought tolerance of the cell lines, the cells were dried according to the following protocol. 4×10^7 Pv11-GCaMP6f stable expression cell lines were centrifuged at 700 g for 3 minutes and the supernatant removed. The precipitated cells were suspended in a 600 mM trehalose mix of 600 mM trehalose and IPL-41 medium at a ratio of 9:1, transferred to a 2 ml flask, and incubated at 25° C. for 48 hours. After 48 hours, the obtained cells were centrifuged at 700 g for 3 minutes and the supernatant was removed. The sedimented cells were suspended in 400 μl of 600 mM trebalose mix, and 40 μl were dropped onto a 35 mm dish. […]
6. […] Using the Orco stable expression cell line and Orco-Or47a stable expression cell line, in order to assess the function of exogenous membrane proteins before drying and after 1 hour of rehydration after drying, fluorescence intensity generated in response to stimulation with VUAA1 (Orco agonist) or pentyl acetate (ligand of Or47a) was measured in the same manner as in 3.2 above.
The fluorescence intensity was digitized from the photograph, and ΔF/F was calculated according to the following formula:
Where the summation Σi=1^n is over the n cells in the image, Fi,after means the fluorescence intensity of the cell i after adding the ligand solution, and Fi,0 means the fluorescence intensity of the cell i before adding the ligand solution. […]

With CCc1ccc(NC(=O)CSc2nnc(-c3cccnc3)n2CC)cc1 [VUAA1, N-(4-ethylphenyl)-2-{[4-ethyl-5-(pyridin-3-yl)-4H-1,2,4-triazol-3-yl]sulfanyl}acetamide] the fluorescence on stimulation was “fluorescence was observed”.
